Assay results reported in patent publication US20220241227A1, “COMPOSITIONS COMPRISING HDAC INHIBITORS AND RETINOIDS” (The Regents of The University of California, priority 2019, published 2022).
Read-outs that look alike come from different tables or passages of the source.

How the values were obtained:
[1] = system: miR-22; experiment: miR-22 induction in HCT116 cells; format: cell-based; details: RA 10 μM, SAHA 5 μM, butyrate 5 mM, propionate 10 mM, valerate 10 mM
Text: Mean±SD, *p<0.05; **p<0.01; ***p<0.0001 vs. DMSO control, #p<0.05 vs. single agent treatment.

[2] = system: Swiss mice; details: oral; cited from earlier work
[3] = system: miR-22; details: published data, cells not given; cited from earlier work
[4] = system: RARβ; experiment: RARβ mRNA and protein levels in HCT116 cells; format: cell-based; details: 48 hrs, RA 10 μM, butyrate 5 mM, SAHA 5 μM
[5] = system: colon tumors in xenograft models; details: combination: RA 0.025 mg/g and butyrate 1.2 mg/g, intraperitoneal, 5 times/week, 2 weeks; cited from earlier work
[6] = system: HDAC1, HDAC4, and SIRT1; details: liver cancer Huh7 and colon cancer HCT116 cells, published data; cited from earlier work

Molecule | miR-22 induction [1] | miR-22 induction [3] | other results
CC1=C(/C=C/C(C)=C/C=C/C(C)=C/C(=O)O)C(C)(C)CCC1 [RA, all-trans retinoic acid] | induced |  | LD50 [2]: 1.1 mg/g
O=C(CCCCCCC(=O)Nc1ccccc1)NO [SAHA, suberanilohydroxamic acid] | induced | induces miR-22 | 
CC(=O)O [acetate] | unable to induce miR-22 |  | 
O=CO [formate] | unable to induce miR-22 |  | 
CCC(=O)O [propionate] | induced | induce miR-22 | 
CCCCC(=O)O [valerate] | induced | induce miR-22 | 
EGF: promotes growth and does not has HDAC inhibitory effect (NSDSECPLSHDGYCLHDGVCMYIEALDKYACNCVVGYIGERCQYRDLKWWELR; Epidermal growth factor; UniProt P01133 971-1023, looked up) |  |  | RARβ expression (mRNA and protein) [4]: did not induce RARβ
miR-22: tumor suppressor microRNA, SEQ ID NO:1 (AAGCUGCCAGUUGAAGAACUGU; listed as RNA, chemistry not fully specified; listed as Homo sapiens) |  |  | treatment of colon tumors in xenograft models [5]: effective in treating colon tumors; HDAC1, HDAC4, and SIRT1 levels [6]: reduced
